Assay results: publication PMC4717260, “2-(2,4-Dioxy-1,2,3,4-Tetrahydropyrimidin-1-yl)-N-(4-Phenoxyphenyl)-Acetamides as a Novel Class of Cytomegalovirus Replication Inhibitors” (Acta Naturae, 2015)
Like-named read-outs stand apart in the source and are kept apart here.

Key:
[1] = tested on: CMV (AD-169 and Davis strains); assay: Anti-CMV activity in HEL cell culture; type: cell-based, human cytomegalovirus; conditions: read-out: EC50, inhibition of CMV replication
[2] = molecular target: thymidine kinase deficient VZV mutant strain (07-1); assay: Anti-VZV activity (thymidine kinase deficient mutant strain 07-1); type: cell-based, varicella zoster virus
VZV (Oka strain) = assay: microbe, parasite or virus in culture; type: cell-based, varicella zoster virus; conditions: read-out: EC50, VZV replication (Oka strain)

**Q.** For `C#CCn1ccc(=O)n(CC(=O)Nc2ccc(Oc3ccccc3)cc2)c1=O`, which melting point is on record?
**A.** The melting point was 226 to 228 °C.

**Q.** Which melting point does the source give for `Cc1ccc(Cn2ccc(=O)n(CC(=O)Nc3ccc(Oc4ccccc4)cc3)c2=O)cc1` here?
**A.** Its melting point is 193 to 194 °C.

**Q.** With `O=C(Cn1c(=O)ccn(CC=Cc2ccccc2)c1=O)Nc1ccc(Oc2ccccc2)cc1` as the compound, how does the melting point read?
**A.** The melting point was 184 to 185 °C.

**Q.** For `O=C(Cn1c(=O)ccn(CCOc2ccccc2)c1=O)Nc1ccc(Oc2ccccc2)cc1`, which melting point is on record?
**A.** Its melting point is 154 to 155 °C.

**Q.** With `O=C(Cn1c(=O)ccn(Cc2ccccc2)c1=O)Nc1ccc(Oc2ccccc2)cc1` [Compound 4, 2-(3-Benzyl-2,6-dioxo-3,6-dihydropyrimidin-1(2H)-yl)-N-(4-phenoxyphenyl)acetamides] as the compound, how does the EC50 ([1]; one range printed for both compounds and both strains) read?
**A.** The EC50 was 3.06 to 8.9 µM.

**Q.** And the EC50 ([2]; strain 07-1, resistant to acyclovir and brivudine, read-out: EC50, thymidine kinase deficient VZV mutant strain (07-1))?
**A.** Its EC50 is 6.68 µM.

**Q.** And the EC50 (VZV (Oka strain); HEL cell culture, Oka strain)?
**A.** The EC50 was 8.18 µM.

**Q.** For `Cc1cc(C)cc(Cn2ccc(=O)n(CC(=O)Nc3ccc(Oc4ccccc4)cc3)c2=O)c1` [Compound 6, 2-[3-(3,5-Dimethylbenzyl)-2,6-dioxo-3,6-dihydropyrimidin-1(2H)-yl]-N-(4-phenoxyphenyl)acetamide], which melting point is on record?
**A.** The melting point was 99 to 101 °C.

**Q.** And the EC50 ([1]; Human betaherpesvirus 5, AD169, one range printed for both compounds and both strains)?
**A.** The EC50 was 3.06 to 8.9 µM.

**Q.** What about the EC50 ([2]; Human alphaherpesvirus 3, read-out: EC50, thymidine kinase deficient VZV mutant strain (07-1)) of the same compound?
**A.** The EC50 was 16.1 µM.

**Q.** What about the EC50 (VZV (Oka strain); Human alphaherpesvirus 3, HEL) of the same compound?
**A.** Its EC50 is 17 µM.

**Q.** For `O=c1[nH]c(=O)n([C@H]2C[C@H](O)[C@@H](CO)O2)cc1/C=C/Br` [brivudine, reference compound], which EC50 (VZV (Oka strain); Human alphaherpesvirus 3, HEL) is on record?
**A.** The EC50 was 0.026 µM.
